Each structure is given as a SMILES string. Numbers after ± are expanded uncertainties.

We go through two molecules from the NIST ThermoML archive (doi:10.1016/j.jct.2014.08.010).

Series [1] in a line: Molar enthalpy of transition or fusion. Particulars: DSC.
For series [2] the following is noted: DTA.

For `CCCCCc1ccc(-c2ccc(C#N)cc2)cc1` [4'-n-pentyl-4-biphenylcarbonitrile], the “Molar enthalpy of transition or fusion” value was determined as 3.26 ± 0.108 kcal/mol in series [1] (Crystal) and 0.117 ± 0.0359 kcal/mol in series [1] (Nematic liquid crystal). The Triple point temperature in series [2] (Crystal) is listed as 297.55 ± 0.5 K; in series [2] (Nematic liquid crystal) it was 308.65 ± 0.5 K.
In the case of `CCCCCCCc1ccc(-c2ccc(C#N)cc2)cc1` [4'-heptyl-4-biphenylcarbonitrile], the “Molar enthalpy of transition or fusion” value in series [1] (Crystal) worked out at 5.82 ± 0.172 kcal/mol; in series [1] (Nematic liquid crystal) it was 0.198 ± 0.0382 kcal/mol. For the same molecule, the figures for the Triple point temperature in series [2] (Crystal) and in series [2] (Nematic liquid crystal) were 305.15 ± 0.5 K and 316.15 ± 0.5 K, respectively.
